Assay results: ChEMBL document CHEMBL3046293, “Fungicidal Activities of -Methoxyphenylacetic Acid Derivatives” (2002)

How the values were obtained:
Type in all cases: functional
[1] = tested on: Pseudoperonospora cubensis; test: Fungicidal activity against Pseudoperonospora cubensis assessed as cucumber downy mildew disease control at 125 ppm foliar application 24 hr after inoculation by curative manner
[2] = tested on: Pseudoperonospora cubensis; test: Fungicidal activity against Pseudoperonospora cubensis assessed as cucumber downy mildew disease control at 0.5 ppm foliar application 24 hr before inoculation onto the abaxial(treated) surface of leaf by preventive manner
[3] = tested on: Pseudoperonospora cubensis; test: Fungicidal activity against Pseudoperonospora cubensis assessed as cucumber downy mildew disease control at 2 ppm foliar application 24 hr before inoculation onto the abaxial(treated) surface of leaf by preventive manner
[4] = tested on: Pseudoperonospora cubensis; test: Fungicidal activity against Pseudoperonospora cubensis assessed as cucumber downy mildew disease control at 7.8 ppm foliar application 24 hr before inoculation onto the abaxial(treated) surface of leaf by preventive manner
[5] = tested on: Pseudoperonospora cubensis; test: Fungicidal activity against Pseudoperonospora cubensis assessed as cucumber downy mildew disease control at 31.3 ppm foliar application 24 hr before inoculation onto the abaxial(treated) surface of leaf by preventive manner
[6] = tested on: Pseudoperonospora cubensis; test: Fungicidal activity against Pseudoperonospora cubensis assessed as cucumber downy mildew disease control at 125 ppm foliar application 24 hr before inoculation onto the abaxial(treated) surface of leaf by preventive manner
[7] = tested on: Pseudoperonospora cubensis; test: Fungicidal activity against Pseudoperonospora cubensis assessed as cucumber downy mildew disease control at 0.5 ppm foliar application 24 hr before inoculation onto the adaxial(treated) surface of leaf by preventive manner
[8] = tested on: Pseudoperonospora cubensis; test: Fungicidal activity against Pseudoperonospora cubensis assessed as cucumber downy mildew disease control at 2 ppm foliar application 24 hr before inoculation onto the adaxial(treated) surface of leaf by preventive manner
[9] = tested on: Pseudoperonospora cubensis; test: Fungicidal activity against Pseudoperonospora cubensis assessed as cucumber downy mildew disease control at 7.8 ppm foliar application 24 hr before inoculation onto the adaxial(treated) surface of leaf by preventive manner
[10] = tested on: Pseudoperonospora cubensis; test: Fungicidal activity against Pseudoperonospora cubensis assessed as cucumber downy mildew disease control at 31.3 ppm foliar application 24 hr before inoculation onto the adaxial(treated) surface of leaf by preventive manner
[11] = tested on: Pseudoperonospora cubensis; test: Fungicidal activity against Pseudoperonospora cubensis assessed as cucumber downy mildew disease control at 125 ppm foliar application 24 hr before inoculation onto the adaxial(treated) surface of leaf by preventive manner
[12] = tested on: Pseudoperonospora cubensis; test: Fungicidal activity against Pseudoperonospora cubensis assessed as cucumber downy mildew disease control at 0.5 ppm foliar application 24 hr after inoculation by curative manner
[13] = tested on: Pseudoperonospora cubensis; test: Fungicidal activity against Pseudoperonospora cubensis assessed as cucumber downy mildew disease control at 2 ppm foliar application 24 hr after inoculation by curative manner
[14] = tested on: Pseudoperonospora cubensis; test: Fungicidal activity against Pseudoperonospora cubensis assessed as cucumber downy mildew disease control at 7.8 ppm foliar application 24 hr after inoculation by curative manner
[15] = tested on: Pseudoperonospora cubensis; test: Fungicidal activity against Pseudoperonospora cubensis assessed as cucumber downy mildew disease control at 31.3 ppm foliar application 24 hr after inoculation by curative manner

COC(=O)C(C)N(C(=O)Cc1ccccc1)c1c(C)cccc1C (stereo not given) [BENALAXYL]
Activity [1]: 80%
Activity [2]: 0%
Activity [3]: 20%
Activity [4]: 40%
Activity [5]: 70%
Activity [6]: 97%
Activity [7]: 0%
Activity [8]: 20%
Activity [9]: 20%
Activity [10]: 70%
Activity [11]: 97%
Activity [12]: 0%
Activity [13]: 10%
Activity [14]: 40%
Activity [15]: 80%
